Reference: patent US20090068687A1, “Screening platform for discovery of immunomodulatory activities in traditional medicine” (The Hong Kong Polytechnic University, priority 2004, published 2009)

Tests used:
Format in all cases: cell-based, rat
IFN-γ [1] = experiment: ELISA of IFN-γ secretion from splenocytes with and without Rg1
Protocol: (§1) Rats were placed under deep ether anesthesia and exsanguinated via the abdominal aorta. Spleen was removed by aseptic techniques before washed twice in 10 mL of RPMI-1640 (Gibco, U.S.A.) medium containing 1000 U/mL penicillin-streptomycin (PS) (Gibco, U.S.A.). Spleens were then cut into small pieces before being sucked up and down with a plunger in a plastic syringe. Single cell suspension was prepared and placed into the same medium containing 1000 U/mL PS, and 5% acid citric dextrose. Splenocytes were then isolated by gradient centrifugation by layering the single cell suspension onto Ficoll-Paque Plus gradient (Amersham Bioscience, H.K. Ltd.) and spun at 400 g for 35 minutes at room temperature. The splenocytes-containing fraction was collected. Erythrocytes were lyzed by adding four volumes of ice-cold ammonium chloride solution (pH 7.4) at room temperature for 5 minutes and splenocytes were washed twice in plain medium. […]
(§2) IFN-γ as well as TNF-α ELISA assays were performed using the OptiEIATM rat IFN-γ and TNF-α kits (Pharmigen, U.S.A.). […] After the addition of avidin-HRP conjugate, color was developed by the addition of 2,2-Azin-bis-3-thylbenzthiazoline-6-sulfonic acid and the color change was monitored at an absorbance of 405 nm with a Microplate Reader (Bio-Rad Laboratories, U.S.A.) The amount of INF-γ and TNF-α were calculated by comparing with the standard.

TNF-α [2] = experiment: Western blotting of TNF-α secretion in culture medium of Rg1-stimulated splenocytes; settings: 5 μg/ml Rg1, culture medium
Protocol: as §1, with “collected.” for “collected. Erythrocytes were lyzed by adding four volumes of ice-cold ammonium chloride solution (pH 7.4) at room temperature for 5 minutes and splenocytes were washed twice in plain medium.”
(§3) Supernatants of splenocytes cell culture with and without Rg1 incubation were harvested at different time points and used for the detection of TNF-α and IFN-γ. […] The protein content of the supernatant/lysate was determined by the Bradford method (Bio-Rad Laboratory, U.S.A.). For each analysis, 350 μg of protein was analyzed by a 12.5% reducing SDS-PAGE gel ran at a constant voltage (150V) for 1 hour. […] Positive binding was detected using the SuperSignal West Pico Chemiluminescent Kit (Pierce, U.S.A.) and the exposed X-ray films (Kodak) were scanned with a Molecular Dynamics Densitometer (Bio-Rad Laboratories, U.S.A.).

splenocytes = experiment: 2-DE (Two-in-one gel) / MALDI-TOF MS analysis of differential protein expression in splenocyte lysates
Protocol: Rats were placed under deep ether anesthesia and exsanguinated via the abdominal aorta. Spleen was removed by aseptic techniques before washed twice in 10 mL of RPMI-1640 (Gibco, U.S.A.) medium containing 1000 U/mL penicillin-streptomycin (PS) (Gibco, U.S.A.). Spleens were then cut into small pieces before being sucked up and down with a plunger in a plastic syringe. Single cell suspension was prepared and placed into the same medium containing 1000 U/mL PS, and 5% acid citric dextrose. Splenocytes were then isolated by gradient centrifugation by layering the single cell suspension onto Ficoll-Paque Plus gradient (Amersham Bioscience, H.K. Ltd.) and spun at 400 g for 35 minutes at room temperature. The splenocytes-containing fraction was collected. Erythrocytes were lyzed by adding four volumes of ice-cold ammonium chloride solution (pH 7.4) at room temperature for 5 minutes and splenocytes were washed twice in plain medium. Lymphocytes were stained with Wright-Giema stain before examination under light microscope. Cell viability and number were examined after trypan blue staining under the light microscope. Splenocytes (1×10^6) were cultured in complete RPMI-1640 medium containing 1000 U/mL PS, supplemented with 2 g/L sodium carbonate. Cells were re-suspended in the same medium with 10% FCS (Gibco, U.S.A.) and subjected to various treatments after 24 hours incubation.
Rg1 (dosage of 5 μg/mL) was added to splenocytes in PBS buffer in 6-well flat-bottomed plates (Nunc Maxisorp, U.S.A.) in a 5% CO2 incubator at 37° C. Samples of conditioned media from the incubation mixture were harvested at varying time points (from 12-72 hours). These samples were kept at −80° C. until use. No sample was kept for more than 2 months. Besides Western Blotting, global protein expression in samples of Rg1 treated splenocytes (at 12 hours and 24 hours intervals) were also performed using 2-DE analysis. Cells incubated with PBS for 24 hours were used as control.
Splenocytes on culture dishes were rinsed once with RPMI-1640 after incubation with or without Rg1. Subsequently, […] trypsin containing 0.2 g/L EDTA was added and allowed to incubate for 3 min. Cells were then collected by centrifugation at 1,000 g for 5 minutes and washed with PBS (pH 7.2) twice. Splenocytes were then lysed with a minimal amount of lysis buffer (usually 200 μl) containing 4% Triton X-100, 9 M urea, and 1 mM PMSF for 10 minutes on ice. The supernatant was collected by centrifugation at 3,000 g for 10 minutes and protein contents were measured by a modified Bradford method using a protein assay kit by Bio-Rad Laboratories, U.S.A. Cell lysates from different animals with the same treatment were pooled together at a protein ratio of 1:1 and was used for 2-DE analysis. 120 μg of splenocytes lysate [in a buffer containing 9M Urea, 2% w/v Triton X-100, 0.5% w/v DDT (Sigma, U.S.A.), 0.4% v/v IPG buffer 4-7 (Amersham Pharmacia Biotech, Uppsala, Sweden) and trace amount of bromophenol blue to a final volume of 300 μl] was used for in-gel sample rehydration.
Samples were applied onto IPG strips pH 4-7 (3×170 mm, Bio-Rad Laboratories, U.S.A.). Rehydration and subsequent isoelectric focusing was performed using either a Protean IEF Cell (Bio-Rad Laboratories, U.S.A.) or an IPGphor (Amersham Biosciences, U.S.A.). Rehydration was performed at room temperature for 16 hour at 50 V in the IPG strip holder covered with low viscosity paraffin oil. Isoelectric focusing was then performed using 500 V (1 hour), 1000 V (1 hour), 4000 V (2 hour) and 8000 V (2 hour) sequentially. Strips were then equilibrated in […] Tris-HCl equilibration buffer, pH 6.8, containing 1% (w/v) DTT (Sigma, U.S.A.), 9M urea, 30% v/v glycerol, 2% w/v SDS and a trace amount of bromophenol blue for 10 minutes. […]

iNOS = experiment: Western blotting of iNOS expression in splenocyte lysate after Rg1 stimulation; settings: 5 μg/ml Rg1, splenocyte lysate
Protocol: as §1, with “collected.” for “collected. Erythrocytes were lyzed by adding four volumes of ice-cold ammonium chloride solution (pH 7.4) at room temperature for 5 minutes and splenocytes were washed twice in plain medium.”
as §3

TNF-α [3] = experiment: ELISA of TNF-α secretion from splenocytes with and without Rg1
Protocol: as §1, §2

IFN-γ [4] = experiment: Western blotting of IFN-γ secretion in culture medium of Rg1-stimulated splenocytes; settings: 5 μg/ml Rg1, culture medium, 24 hour
Protocol: as §1, with “collected.” for “collected. Erythrocytes were lyzed by adding four volumes of ice-cold ammonium chloride solution (pH 7.4) at room temperature for 5 minutes and splenocytes were washed twice in plain medium.”
as §3

[5] = 5 μg/mL Rg1, ELISA time course 12-72 hours
[6] = 5 μg/mL Rg1, ELISA, versus splenocytes without Rg1
[7] = Rg1 24 hours versus PBS control
[8] = Rg1 treated versus normal sample, Two-in-one gels

## CC(C)=CCC[C@](C)(O[C@@H]1O[C@H](CO)[C@@H](O)[C@H](O)[C@H]1O)[C@H]1CC[C@]2(C)[C@@H]1[C@H](O)C[C@@H]1[C@@]3(C)CC[C@H](O)C(C)(C)[C@@H]3[C@@H](O[C@@H]3O[C@H](CO)[C@@H](O)[C@H](O)[C@H]3O)C[C@]12C [Rg1]
IFN-γ [1]; [5]
  incubation time at which IFN-γ level reached a maximum: 24 h
IFN-γ [1]; [6]
  increase in quantity of IFN-γ after Rg1 induction: more than 1000 fold
TNF-α [2]; 24 hour
  TNF-α detection by Western blotting: detected
TNF-α [2]; 48 hour
  TNF-α detection by Western blotting: detected
splenocytes; 24 hours incubation with Rg1, about 102 spots in normal sample
  number of protein spots detected on the gel half run with the Rg1 treated sample: 122
splenocytes; [7]
  Regulation of Alpha-mannosidase II (spot 6): Up-
  Regulation of Cytochrome C oxidase polypeptide IV precursor (spot 2): Up-
  Regulation of DNA polymerase beta (spot 3): Up-
  Regulation of Guanine nucleotide-binding protein G (spot 4): Up-
  Regulation of Homeotic protein LH-2 (spot 1): Up-
  Regulation of T-cell surface glycoprotein CD5 precursor (spot 5): Up-
splenocytes; [8]
  number of protein spots down-regulated: 38
  number of proteins up-regulated: 87
  number of spots without significant apparent changes: 38
iNOS; 12 hour
  iNOS detection by Western blotting: detected
iNOS; 24 hour
  iNOS detection by Western blotting: detected
TNF-α [3]; [5]
  incubation time at which TNF-α level reached a maximum: 24 h
TNF-α [3]; [6]
  increase in quantity of TNF-α after Rg1 induction: more than 1000 fold
IFN-γ [4]
  IFN-γ detection by Western blotting: detected
